Test results taken from US9233989B2, “Sila analogs of oxazolidinone derivatives and synthesis thereof” (Council of Scientific & Industrial Research, priority 2011, dated 2016).
In brackets after ≈: the same amount, converted by molar mass.

Assays:
S.aureus2 (PVL + ve) = assay type: cell-based, S. aureus
[1] = test system: E.faecalis ATCC 51299(VRE&HLAR); assay: MIC by microbroth dilution method; assay type: cell-based
E.faecium 06076 VRE = assay: MIC by microbroth dilution method; assay type: cell-based
[2] = test system: S.aureus ATCC 13709 Smith; assay: MIC by microbroth dilution method; assay type: cell-based
[3] = test system: S.aureus 13709 LNZ mutant; assay type: cell-based
MRSA ATCC BAA 39 = assay: MIC by microbroth dilution method; assay type: cell-based, S. aureus
[4] = test system: S.aureus ATCC 700699 Mu50; assay: MIC by microbroth dilution method; assay type: cell-based
[5] = test system: Mycobacterium tuberculosis H37Rv; assay: Anti-TB activity, colorimetric resazurin microtiter assay; assay type: cell-based; settings: Mycobacterium tuberculosis, H37RV, read-out: MIC, Minimum Inhibitory Concentration (90%)
MRSA 252 BAA 1720 = assay: MIC by microbroth dilution method; assay type: cell-based, S. aureus
E.faecalis SP 346 VRE = assay: MIC by microbroth dilution method; assay type: cell-based
[6] = test system: S.aureus ATCC 49775 PVL + ve; assay type: cell-based
MRSE ATCC 35983 = assay: MIC by microbroth dilution method; assay type: cell-based, S. epidermidis
E.faecium ATCC 35667 = assay: MIC by microbroth dilution method; assay type: cell-based
S.epidermis St 358 = assay: MIC by microbroth dilution method; assay type: cell-based, S. epidermidis
E.faecium ATCC 49224 = assay: MIC by microbroth dilution method; assay type: cell-based
S.epidermidis ATCC 12228 = assay: MIC by microbroth dilution method; assay type: cell-based
E.faecium 134 VRE = assay: MIC by microbroth dilution method; assay type: cell-based
E.faecium 6A VRE = assay: MIC by microbroth dilution method; assay type: cell-based
MRSA DB 00026 = assay: MIC by microbroth dilution method; assay type: cell-based, S. aureus
MRSA 562 = assay: MIC by microbroth dilution method; assay type: cell-based, S. aureus
[7] = test system: S.aureus ATCC Newman 25904; assay: MIC by microbroth dilution method; assay type: cell-based
E.faecium ATCC 19434 = assay: MIC by microbroth dilution method; assay type: cell-based
MRSE ATCC 35984 = assay: MIC by microbroth dilution method; assay type: cell-based, S. epidermidis
S.epidermidis ATCC 14990 = assay: MIC by microbroth dilution method; assay type: cell-based
E.faecalis ATCC 19433 = assay: MIC by microbroth dilution method; assay type: cell-based
E.coli 7632 = assay: MIC by microbroth dilution method; assay type: cell-based
E.faecium ATCC 3567 = assay: MIC by microbroth dilution method; assay type: cell-based
S.aureus DB00026 = assay: MIC by microbroth dilution method; assay type: cell-based
MRSA 0-2657 = assay: MIC by microbroth dilution method; assay type: cell-based, S. aureus
S.aureus ATCC 29213 = assay: MIC by microbroth dilution method; assay type: cell-based
MRSA ATCC 43300 = assay: MIC by microbroth dilution method; assay type: cell-based, S. aureus
E.faecalis ATCC 29212 = assay: MIC by microbroth dilution method; assay type: cell-based

`C[Si]1(C)CCN(c2c(F)cc(N3C[C@H](CN)OC3=O)cc2F)CC1` [NDS-10054, (S)-5-(aminomethyl)-3-(4-(4,4-dimethyl-1,4-azasilinan-1-yl)-3,5-difluorophenyl)oxazolidin-2-one] was tested, and the MIC (S.aureus2 (PVL + ve)) was 16 mg/L (≈ 45 µM), the MIC [1] was 16 mg/L (≈ 45 µM) and the MIC (E.faecium 06076 VRE) was 16 mg/L (≈ 45 µM). It also gave an MIC [2] of 16 mg/L (≈ 45 µM), an MIC [3] of 32 mg/L (≈ 90 µM) and an MIC (MRSA ATCC BAA 39) of 16 mg/L (≈ 45 µM). For the same compound, the MIC [4] was 16 mg/L (≈ 45 µM), the MIC [5] was 25 mg/L (≈ 70.3 µM) and the MIC (MRSA 252 BAA 1720) was 16 mg/L (≈ 45 µM). The MIC (E.faecalis SP 346 VRE) was 16 mg/L (≈ 45 µM), the MIC [6] was 16 mg/L (≈ 45 µM) and the MIC (MRSE ATCC 35983) was 32 mg/L (≈ 90 µM). The MIC (E.faecium ATCC 35667) was 8 mg/L (≈ 22.5 µM), the MIC (S.epidermis St 358) was 16 mg/L (≈ 45 µM) and the MIC (E.faecium ATCC 49224) was 16 mg/L (≈ 45 µM). The MIC (S.epidermidis ATCC 12228) was 32 mg/L (≈ 90 µM), the MIC (E.faecium 134 VRE) was 16 mg/L (≈ 45 µM) and the MIC (E.faecium 6A VRE) was 8 mg/L (≈ 22.5 µM). It also gave an MIC (MRSA DB 00026) of 16 mg/L (≈ 45 µM), an MIC (MRSA 562) of 16 mg/L (≈ 45 µM) and an MIC [7] of 16 mg/L (≈ 45 µM). It also gave an MIC (E.faecium ATCC 19434) of 16 mg/L (≈ 45 µM), an MIC (MRSE ATCC 35984) of 16 mg/L (≈ 45 µM) and an MIC (S.epidermidis ATCC 14990) of 16 mg/L (≈ 45 µM). The MIC (E.faecalis ATCC 19433) was 16 mg/L (≈ 45 µM), the MIC (E.coli 7632) was > 32 mg/L and the MIC (E.faecium ATCC 3567) was 8 mg/L (≈ 22.5 µM). It also gave an MIC (S.aureus DB00026) of 16 mg/L (≈ 45 µM), an MIC (MRSA 0-2657) of 16 mg/L (≈ 45 µM) and an MIC (S.aureus ATCC 29213) of 16 mg/L (≈ 45 µM). It also gave an MIC (MRSA ATCC 43300) of 16 mg/L (≈ 45 µM) and an MIC (E.faecalis ATCC 29212) of 16 mg/L (≈ 45 µM).
In the case of `CCC(=O)NC[C@H]1CN(c2cc(F)c(N3CC[Si](C)(C)CC3)c(F)c2)C(=O)O1` [NDS-10056, (S)—N-((3-(4-(4,4-dimethyl-1,4-azasilinan-1-yl)-3,5-difluorophenyl)-2-oxooxazolidin-5-yl)methyl)propionamide], the MIC (S.aureus2 (PVL + ve)) was 8 mg/L (≈ 19.4 µM), the MIC [1] was 8 mg/L (≈ 19.4 µM) and the MIC (E.faecium 06076 VRE) was > 32 mg/L. The MIC [2] was > 32 mg/L, the MIC [3] was > 32 mg/L and the MIC (MRSA ATCC BAA 39) was 32 mg/L (≈ 77.8 µM). It also gave an MIC [4] of 16 mg/L (≈ 38.9 µM), an MIC [5] of 50 mg/L (≈ 121 µM) and an MIC (MRSA 252 BAA 1720) of 32 mg/L (≈ 77.8 µM). For the same compound, the MIC (E.faecalis SP 346 VRE) was 16 mg/L (≈ 38.9 µM), the MIC [6] was 32 mg/L (≈ 77.8 µM) and the MIC (MRSE ATCC 35983) was 32 mg/L (≈ 77.8 µM). For the same compound, the MIC (E.faecium ATCC 35667) was 32 mg/L (≈ 77.8 µM), the MIC (S.epidermis St 358) was 32 mg/L (≈ 77.8 µM) and the MIC (E.faecium ATCC 49224) was 32 mg/L (≈ 77.8 µM). For the same compound, the MIC (S.epidermidis ATCC 12228) was 8 mg/L (≈ 19.4 µM), the MIC (E.faecium 134 VRE) was 32 mg/L (≈ 77.8 µM) and the MIC (E.faecium 6A VRE) was 8 mg/L (≈ 19.4 µM). It also gave an MIC (MRSA DB 00026) of 32 mg/L (≈ 77.8 µM), an MIC (MRSA 562) of 8 mg/L (≈ 19.4 µM) and an MIC [7] of 16 mg/L (≈ 38.9 µM). The MIC (E.faecium ATCC 19434) was 32 mg/L (≈ 77.8 µM), the MIC (MRSE ATCC 35984) was 32 mg/L (≈ 77.8 µM) and the MIC (S.epidermidis ATCC 14990) was 16 mg/L (≈ 38.9 µM). For the same compound, the MIC (E.faecalis ATCC 19433) was 32 mg/L (≈ 77.8 µM), the MIC (E.coli 7632) was > 32 mg/L and the MIC (E.faecium ATCC 3567) was 32 mg/L (≈ 77.8 µM). For the same compound, the MIC (S.aureus DB00026) was > 32 mg/L, the MIC (MRSA 0-2657) was 16 mg/L (≈ 38.9 µM) and the MIC (S.aureus ATCC 29213) was > 32 mg/L. It also gave an MIC (MRSA ATCC 43300) of 16 mg/L (≈ 38.9 µM) and an MIC (E.faecalis ATCC 29212) of 32 mg/L (≈ 77.8 µM).
In the case of `C[Si]1(C)CCN(c2ccc(N3C[C@H](CN)OC3=O)cc2F)CC1` [NDS-10057, (S)-5-(aminomethyl)-3-(4-(4,4-dimethyl-1,4-azasilinan-1-yl)-3-fluorophenyl)oxazolidin-2-one], the MIC (S.aureus2 (PVL + ve)) was > 32 mg/L, the MIC [1] was 16 mg/L (≈ 47.4 µM) and the MIC (E.faecium 06076 VRE) was > 32 mg/L. The MIC [2] was > 32 mg/L, the MIC [3] was > 32 mg/L and the MIC (MRSA ATCC BAA 39) was > 32 mg/L. The MIC [4] was > 32 mg/L, the MIC [5] was 25 mg/L (≈ 74.1 µM) and the MIC (MRSA 252 BAA 1720) was > 32 mg/L. The MIC (E.faecalis SP 346 VRE) was > 32 mg/L, the MIC [6] was > 32 mg/L and the MIC (MRSE ATCC 35983) was > 32 mg/L. The MIC (E.faecium ATCC 35667) was 32 mg/L (≈ 94.8 µM), the MIC (S.epidermis St 358) was > 32 mg/L and the MIC (E.faecium ATCC 49224) was 32 mg/L (≈ 94.8 µM). For the same compound, the MIC (S.epidermidis ATCC 12228) was > 32 mg/L, the MIC (E.faecium 134 VRE) was 32 mg/L (≈ 94.8 µM) and the MIC (E.faecium 6A VRE) was > 32 mg/L. The MIC (MRSA DB 00026) was > 32 mg/L, the MIC (MRSA 562) was > 32 mg/L and the MIC [7] was > 32 mg/L. The MIC (E.faecium ATCC 19434) was 32 mg/L (≈ 94.8 µM), the MIC (MRSE ATCC 35984) was 32 mg/L (≈ 94.8 µM) and the MIC (S.epidermidis ATCC 14990) was > 32 mg/L. For the same compound, the MIC (E.faecalis ATCC 19433) was 32 mg/L (≈ 94.8 µM), the MIC (E.coli 7632) was 32 mg/L (≈ 94.8 µM) and the MIC (E.faecium ATCC 3567) was > 32 mg/L. For the same compound, the MIC (S.aureus DB00026) was > 32 mg/L, the MIC (MRSA 0-2657) was > 32 mg/L and the MIC (S.aureus ATCC 29213) was > 32 mg/L. The MIC (MRSA ATCC 43300) was > 32 mg/L and the MIC (E.faecalis ATCC 29212) was > 32 mg/L.
